Test results taken from patent US8697742B2, “BCRP/ABCG2 inhibitor” (Kabushiki Kaisha Yakult Honsha, priority 2005, dated 2014).
Converted amounts (≈) assume the structure as drawn. Where a name gives a salt, the structure may show the parent alone.

Assays:
[1] = system: HCT116 cells; assay: In vivo tumour growth, HCT116 tumour in nude mice; design: species or system human; settings: solvent + CPT-11 10 mg/kg/day i.v. for seven days (no compound); day 21; parental HCT116
Source text: (§1) A solvent was solely administered to a control group. On the day 21 from the start of administration, a tumor was extirpated from each mice and weighed, and the tumor growth inhibition ratio IR (%) was derived from the following equation: Tumor growth inhibition ratio IR(%)=(1−average tumor weight of each administration group/average tumor weight of control group)×100.

[2] = system: A549/SN-38-4 cells; assay: Effect of overcoming SN-38 resistance of BCRP-expressing A549/SN-38-4 cells; type: cell-based, human; settings: Homo sapiens, A549, 48 h, concentration for 50% reduction of relative SN-38 resistance value (IC50 A549/SN-38-4 / IC50 A549); 48 hours culture with SN-38; read-out: Effect of overcoming resistance EC50
How it was run: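 A549/SN-38-4 cells and parental A549 cells were seeded at 2×10^3 per well in Ham's F-12 with 10% FBS and precultured overnight at 37 °C. Viable cells were counted colorimetrically with TetraColor ONE after drug culture. A relative resistance value was derived.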

[3] = system: P388/BCRP cells; assay: Effect of overcoming SN-38 resistance of human BCRP gene-transduced P388 cells; type: cell-based, mouse; settings: with SN-38, 48 hours, FIG. 1
Experimental: (§2) Mouse leukemia P388 cells or human BCRP gene-transduced P388 cells (P388/BCRP cells) (see JP-A-2003-063989) were suspended in 10% FBS/RPMI1640 containing 2-mercaptethanol (50 μM), and the resultant suspension was added to a 96-well microplate (1×10^4 cells/50 μL/well). Thereafter, a solution of each of Compounds 1, 14, 21, 31, 39, and 41 of the present invention and SN-38 in 100 FBS/RPNI1640 (25 μL) was added to each of the wells, followed by culturing at 5% CO2 and 37° C. for 48 hours. After completion of culturing, the number of viable cells was counted by use of TetraColor ONE according to the manufacture's instruction manual.

[4] = system: P388 cells; assay: Sensitivity of parental P388 cells to SN-38; type: cell-based, mouse; settings: with SN-38, 48 hours, FIG. 1
Experimental: as §2

[5] = system: K562/MDR cells; assay: Effect on paclitaxel (multidrug) resistance of human MDR1 gene-transduced K562 cells; type: cell-based; settings: Homo sapiens; concentration for 50% reduction of relative paclitaxel resistance value; K562/MDR vs K562; 72 hours; read-out: Effect of overcoming resistance EC50
Source text: After completion of culturing, the number of viable cells was counted by use of TetraColor ONE according to the manufacture's instruction manual.

[6] = system: K562/BCRP cells; assay: Intracellular accumulation of SN-38 in BCRP-expressing cells; type: cell-based, human; settings: compound 500 ng/mL, 37° C. for 30 minutes, FIG. 2
Experimental: (§3) K562 cells or human BCRP gene-transduced K562 cells (K562/BCRP cells) (see JP-A-2003-063989) were suspended in 10% FBS/RPMI1640 (1 mL) (5×10^6 cells/mL), and SN-38 and each of Compounds 1, 39, and 46 of the present invention (final concentration: 500 ng/mL) were added to the resultant suspension, followed by incubation at 37° C. for 30 minutes. Thereafter, centrifugation was performed (2° C., 1,400×g, 1 min), and the resultant supernatant was removed. Ice-cooled PBS containing 1% BSA was added to the thus-pelletized cells, and the cells were resuspended, followed by centrifugation (2° C., 1,400×g, 1 min) for washing the cells. This washing procedure was performed again, followed by addition of PBS (250 μL) and sonication of the cells. To the resultant cell sonicate, methanol (250 μL) and 10% zinc sulfate solution (10 μL) were added, and the resultant mixture was stirred, followed by centrifugation (2° C., 12, 500×g, 5 min) and collection of the supernatant. The thus-collected supernatant was dispensed in a white 96-well microplate for fluorescence intensity measurement (200 μL/well), and then the amount of SN-38 contained in the supernatant was measured by use of a microplate fluorometer [SPECTRA max GEMINI XS (trademark), product of Molecular Devices] […]

[7] = system: K562 cells; assay: Intracellular accumulation of SN-38 in parental K562 cells; type: cell-based, human; settings: compound 500 ng/mL, 37° C. for 30 minutes, FIG. 2
Experimental: as §3

[8] = system: HCT116/BCRP cells; assay: Effect of overcoming anticancer agent resistance in vivo, HCT116/BCRP tumour in nude mice; design: species or system human; settings: day 21; for Tumor weight Mean ± S.D.: BALB/c nude mice; for Tumor growth inhibition ratio IR: vs control group
Source text: as §1

[9] = compound 6.3 mg/kg/day + CPT-11 10 mg/kg/day i.v. once a day for seven days
[10] = compound 12.5 mg/kg/day + CPT-11 10 mg/kg/day i.v. once a day for seven days

| EC50 [2] | EC50 [5] | SMILES | Tumor weight Mean ± S.D. [1] | Effect of overcoming the SN-38 resistance of the P388/BCRP cells [3] | Effect on sensitivity of the P388 cells to SN-38 [4] | Amount of accumulation of SN-38 in the K562/BCRP cells [6] | Amount of accumulation of SN-38 in the K562 cells (parental cells) [7] | Tumor weight Mean ± S.D. [8, 9] | Tumor growth inhibition ratio IR [8, 9] | Tumor weight Mean ± S.D. [8, 10] | Tumor growth inhibition ratio IR [8, 10] |
| --- | --- | --- | --- | --- | --- | --- | --- | --- | --- | --- | --- |
| – | – | CCc1c2c(nc3ccc(OC(=O)N4CCC(N5CCCCC5)CC4)cc13)-c1cc3c(c(=O)n1C2)COC(=O)[C@]3(O)CC [CPT-11, irinotecan hydrochloride] | 0.37 ± 0.08 g | – | – | – | – | – | – | – | – |
| 0.006 µg/mL (≈ 0.019 µM) | > 5 µg/mL | COc1ccc(/C(C#N)=C/c2ccc([N+](=O)[O-])s2)cc1OC [Compound 1, (Z)-2-(3,4-dimethoxy-phenyl)-3-(5-nitro-thiophen-2-yl)-acrylonitrile] | – | potent effect of overcoming the SN-38 resistance | did not affect the sensitivity | increased the amount of accumulation of SN-38 | virtually unaffected | – | – | – | – |
| 0.02 µg/mL (≈ 0.0531 µM) | > 5 µg/mL | COc1ccc(/C(C#N)=C/c2ccc(-c3cccc([N+](=O)[O-])c3)o2)cc1OC [Compound 21, (Z)-2-(3,4-dimethoxy-phenyl)-3-[5-(3-nitro-phenyl)-furan-2-yl]-acrylonitrile] | – | potent effect of overcoming the SN-38 resistance | did not affect the sensitivity | – | – | – | – | – | – |
| 0.028 µg/mL | > 5 µg/mL | COc1ccc(/C(C#N)=C/c2ccncc2)cc1OC.CS(=O)(=O)O [Compound 32, (Z)-2-(3,4-dimethoxy-phenyl)-3-pyridin-4-yl-acrylonitrile methanesulfonate] | – | – | – | – | – | 0.75 ± 0.24 g | 40.8% | 0.52 ± 0.11 g | 59.0% |
| 0.037 µg/mL (≈ 0.146 µM) | > 5 µg/mL | COc1ccc(/C(C#N)=C/c2ccc[nH]2)cc1OC [Compound 39, (Z)-2-(3,4-dimethoxy-phenyl)-3-(1H-pyrrol-2-yl)-acrylonitrile] | – | potent effect of overcoming the SN-38 resistance | did not affect the sensitivity | increased the amount of accumulation of SN-38 | virtually unaffected | – | – | – | – |

| SMILES | EC50 [2] | EC50 [5] | Tumor weight Mean ± S.D. [1] | Effect of overcoming the SN-38 resistance of the P388/BCRP cells [3] | Effect on sensitivity of the P388 cells to SN-38 [4] | Amount of accumulation of SN-38 in the K562/BCRP cells [6] | Amount of accumulation of SN-38 in the K562 cells (parental cells) [7] | Tumor weight Mean ± S.D. [8, 9] | Tumor growth inhibition ratio IR [8, 9] | Tumor weight Mean ± S.D. [8, 10] | Tumor growth inhibition ratio IR [8, 10] |
| --- | --- | --- | --- | --- | --- | --- | --- | --- | --- | --- | --- |
| COc1ccc(/C(C#N)=C/c2cnc[nH]2)cc1OC [Compound 41, (Z)-2-(3,4-dimethoxy-phenyl)-3-(3H-imidazol-4-yl)-acrylonitrile] | 0.28 µg/mL (≈ 1.1 µM) | > 5 µg/mL | – | potent effect of overcoming the SN-38 resistance | did not affect the sensitivity | – | – | – | – | – | – |
